Patent EP2646421B1, “7-NITRO-5-PHENYL-1-(PYRROLIDIN-1-YLMETHYL)-1H-BENZO[E][1,4]DIAZEPIN-2(3H)-ONE AND OTHER BENZODIAZEPINE DERIVATIVES” (Pignataro, Giuseppe, priority 2010, dated 2012)

Experiments:
Type in all cases: cell-based
[1] = biological target: T1, NCX1Δf (Canis lupus familiaris, UniProt P23685, DEL273-712); test: Na+-dependent Ca2+ influx assay on BHK cells with f-loop deletion mutant; details: 10 nM; compared to wild-type NCX3 exposed to the same treatment
T1 construct: expressed in transfected cells
Experimental: In order to establish the molecular determinants of the effect of neurounina-1 on NCX1, we firstly performed a Na^+-dependent Ca^2+ influx assay on BHK cells stably transfected with a mutated NCX1 exchanger (NCX1Δf), in which a large portion of the f loop, region 241-680, was removed by deletion mutagenesis.
All experiments aimed to identify the binding site of neurounina-1 were performed on BHK cells stably transfected with a single NCX chimera or mutant.
The activity of the Na^+/Ca^2+ exchanger was measured by means of ^45Ca^2+ radiotracer variations in the cytoplasm of cells exposed to a protocol stimulating the forward or the reverse mode of the antiporter. The BHK cells expressing each mutated or non-mutated NCX isoform were cultured in 12-well dishes and incubated in 145 mM NaCl for 10 minutes and then in a medium containing only 145 mM N-Methyl D-glucamine (NMDG) and 10 µM of ^45Ca^2+. This rapid substitution of the medium from a high level of Na^+ to another one without Na^+ allow the ^45Ca^2+ influx (reverse mode). Before the medium substitution cells was incubated with 1 mM ouabain, a Na^+/K^+ pump inhibitor, and 10 µM monensin, a ionophore for extracellular Na^+. […] The medium was removed and cells were subsequently lysed with 0.1 N NaOH and aliquots were taken to determine radioactivity and protein content.

[2] = system: rat cortical neurons; test: Oxygen and glucose deprivation (OGD) followed by reoxygenation; details: 10 nM; 3 hours OGD followed by 21 hours of reoxygenation
Experimental: The effect of neurounina-1 was evaluated on cell viability by using rat primary cortical neurons obtained as follow. Briefly, cortical neurons were prepared from brains of 1-2 day-old new-born rats, anaesthetizes with halothane in a glass chamber and decapitated. Dissection and dissociation were performed in a Ca^2+-Mg^2+-free PBS containing glucose. The brain was removed from the skull and the cerebral cortex was removed. Cerebral cortex was first digested enzymatically and after dispersed mechanically by trituration. Cellular suspension was plated on coverslips previously pre-coated with poly-D-lysine 1mg/ml and cultured in "Neurobasal" medium containing B27 (1:50) and Glutamax)1:100).
The oxygen and glucose deprivation (OGD) was used as a model to reproduce in vitro a condition similar to that observed in vivo when a cerebral vessel was occluded as it occurs in stroke. Briefly, cells were incubated in a medium oxygen and glucose-free and containing: NaCl 116 mM, KCI 5.4 mM, MgSO4 0.8 mM, NaHCO3 26.2 mM, NaH2PO4 1 mM, CaCl2 1.8 mM, glycin 0.01 mM e phenol 0.001 mM (w/v) (Molinaro et al., 2008). This medium was previously saturated with 1 atm of a gas containing 95% N2 and 5% CO2 for 20 minutes. […]

[3] = biological target: T2, NCX1 (Canis lupus familiaris, UniProt P23685); test: 45Ca2+ radiotracer fluxes (efflux/influx) in BHK-NCX1 cells
T2 construct: expressed in transfected cells
Experimental: The activity of NCX was established by means of three different subclones of baby hamsted kidney (BHK) cells that were stably transfected with one of each NCX isoforms, named BHK-NCX1, BHK-NCX2 and BHK-NCX3. These cell lines were grown on plastic dishes in a mix of DMEM and Ham's F12 media (1:1) (Gibco, Invitrogen, MI, Italy) supplemented with 5% fetal bovine serum, 100 U/ml penicillin, and 100 µg/ml streptomycin (Sigma, St. Louis, Missouri, USA). Cells were cultured in a humidified 5% CO2 atmosphere and at the temperature of 37°C.
The activity of the Na^+/Ca^2+ exchanger was measured by means of ^45Ca^2+ radiotracer variations in the cytoplasm of cells exposed to a protocol stimulating the forward or the reverse mode of the antiporter. The BHK cells expressing each mutated or non-mutated NCX isoform were cultured in 12-well dishes and incubated in 145 mM NaCl for 10 minutes and then in a medium containing only 145 mM N-Methyl D-glucamine (NMDG) and 10 µM of ^45Ca^2+. This rapid substitution of the medium from a high level of Na^+ to another one without Na^+ allow the ^45Ca^2+ influx (reverse mode). Before the medium substitution cells was incubated with 1 mM ouabain, a Na^+/K^+ pump inhibitor, and 10 µM monensin, a ionophore for extracellular Na^+. After 30 seconds incubation, cells were washed with an ice-cold solution containing 2 mM La^3+ to stop ^45Ca^2+ uptake. The medium was removed and cells were subsequently lysed with 0.1 N NaOH and aliquots were taken to determine radioactivity and protein content.
In order to measure NCX activity in the forward mode, cells were firstly loaded with ^45Ca^2+ and subsequently exposed to a chemical protocol to stimulate the efflux of the radiotracer in the extracellular medium. In particular, cells were loaded with ^45Ca^2+ by using a solution containing 1 µM ionomycin, 145 mM Na^+ and ^45Ca^2+. Next, cells were exposed to a Ca^2+-free solution containing 2 mM EGTA. One µM thapsigargin, a Ca^2+-ATPase inhibitor, was present in both solutions in order to prevent ^45Ca^2+ influx in intracellular organelles. After 60 second, cells were lysed with […] NaOH and aliquots were taken to determine cytoplasmatic radioactivity.
Cells were incubated for 30 minutes with different neurounina-1 concentrations.

T2 sequence (P23685 33-970): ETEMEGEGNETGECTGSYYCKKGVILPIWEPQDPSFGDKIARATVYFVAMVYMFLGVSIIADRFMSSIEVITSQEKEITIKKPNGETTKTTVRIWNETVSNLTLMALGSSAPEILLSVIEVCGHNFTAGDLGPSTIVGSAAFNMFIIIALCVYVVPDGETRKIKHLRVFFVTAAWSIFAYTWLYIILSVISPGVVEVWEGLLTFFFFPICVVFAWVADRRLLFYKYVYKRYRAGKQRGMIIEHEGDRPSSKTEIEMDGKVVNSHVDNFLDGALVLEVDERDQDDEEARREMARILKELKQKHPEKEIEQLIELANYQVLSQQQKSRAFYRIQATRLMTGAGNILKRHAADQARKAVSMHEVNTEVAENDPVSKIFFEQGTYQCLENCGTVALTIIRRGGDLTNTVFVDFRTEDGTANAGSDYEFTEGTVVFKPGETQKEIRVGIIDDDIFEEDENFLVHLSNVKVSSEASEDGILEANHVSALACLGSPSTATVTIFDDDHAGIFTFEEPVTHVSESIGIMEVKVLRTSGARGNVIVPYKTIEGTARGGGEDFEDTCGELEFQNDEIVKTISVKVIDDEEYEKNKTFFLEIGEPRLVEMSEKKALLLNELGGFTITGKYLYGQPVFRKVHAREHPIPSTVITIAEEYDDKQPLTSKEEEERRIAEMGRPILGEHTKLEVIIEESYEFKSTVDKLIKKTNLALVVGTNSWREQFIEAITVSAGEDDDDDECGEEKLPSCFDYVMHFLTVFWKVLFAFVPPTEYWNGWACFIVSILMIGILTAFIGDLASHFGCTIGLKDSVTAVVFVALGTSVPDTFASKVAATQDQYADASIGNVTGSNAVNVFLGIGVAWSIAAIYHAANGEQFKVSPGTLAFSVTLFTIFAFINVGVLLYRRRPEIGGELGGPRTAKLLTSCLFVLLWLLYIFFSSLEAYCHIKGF
T1 sequence (P23685 with tags, fused parts or gaps DEL273-712): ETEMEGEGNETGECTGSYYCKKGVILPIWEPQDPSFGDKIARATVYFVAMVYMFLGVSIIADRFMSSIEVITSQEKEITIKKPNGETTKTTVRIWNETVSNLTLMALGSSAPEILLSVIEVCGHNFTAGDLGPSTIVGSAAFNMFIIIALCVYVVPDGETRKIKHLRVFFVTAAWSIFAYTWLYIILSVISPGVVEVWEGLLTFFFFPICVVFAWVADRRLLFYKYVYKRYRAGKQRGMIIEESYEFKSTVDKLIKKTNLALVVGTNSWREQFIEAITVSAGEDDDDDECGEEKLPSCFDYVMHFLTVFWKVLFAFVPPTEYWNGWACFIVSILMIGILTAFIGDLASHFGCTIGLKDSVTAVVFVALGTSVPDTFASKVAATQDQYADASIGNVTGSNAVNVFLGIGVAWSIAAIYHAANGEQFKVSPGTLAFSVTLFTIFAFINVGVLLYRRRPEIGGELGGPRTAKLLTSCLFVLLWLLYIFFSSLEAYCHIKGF

SMILES: O=C1CN=C(c2ccccc2)c2cc([N+](=O)[O-])ccc2N1CN1CCCC1 [neurounina-1, 7-nitro-5-phenyl-1-(pyrrolidin-1-ylmethyl)-1H-benzo[e][1,4]diazepin-2(3H)-one]
- activity of the mutant NCX1Δf [1]: significantly increased
- cell death of rat cortical neurons [2]: reduced cell death
- increase of forward mode of NCX1 activity ([3]; 45Ca2+ radiotracer, forward mode): 70%
- increase of reverse mode NCX1 activity ([3]; 45Ca2+ radiotracer, reverse mode): 40%
- EC50 ([3]; EC50 NCX1, reverse mode, 45Ca2+ radiotracer, reverse mode): 1.1 nM
- EC50 ([3]; EC50 for NCX1, forward mode, 45Ca2+ radiotracer, forward mode): 1.4 nM
- EC50 ([3]; EC50 su NCX1, from the functional assays (summary)): 1 to 2 nM
- NCX1 activity ([3]; forward and reverse mode, patch clamp, Fura-2 microfluorimetry and 45Ca2+ fluxes (summary)): increases, in a dose-dependent manner
